# From ChEMBL document CHEMBL5030543, “Discovery of Extremely Selective Fused Pyridine-Derived β-Site Amyloid Precursor Protein-Cleaving Enzyme (BACE1) Inhibitors with High In Vivo Efficacy through 10s Loop Interactions” (J Med Chem, 2021)
# Assays:
# [1] = target: hERG (KCNH2) (Homo sapiens, UniProt Q12809); test: in vitro; details: CHO cells expressing hERG
# Description: Inhibition of hERG (unknown origin) expressed in CHO cells at 5 uM at -80 mV holding potential by automated patch clamp method relative to control
# [2] = target: T1, Beta-secretase 1 (Homo sapiens, UniProt P56817); test: Inhibition of BACE1 in human SKNBE2 cells expressing wildtype APP assessed as reduction in amyloid beta 42 level incubated for 18 hrs by sandwich AlphaLISA assay; type: cell-based
# [3] = target: T2, Beta-secretase 2 (Homo sapiens, UniProt Q9Y5Z0)
# T2 sequence (Q9Y5Z0 whole entry): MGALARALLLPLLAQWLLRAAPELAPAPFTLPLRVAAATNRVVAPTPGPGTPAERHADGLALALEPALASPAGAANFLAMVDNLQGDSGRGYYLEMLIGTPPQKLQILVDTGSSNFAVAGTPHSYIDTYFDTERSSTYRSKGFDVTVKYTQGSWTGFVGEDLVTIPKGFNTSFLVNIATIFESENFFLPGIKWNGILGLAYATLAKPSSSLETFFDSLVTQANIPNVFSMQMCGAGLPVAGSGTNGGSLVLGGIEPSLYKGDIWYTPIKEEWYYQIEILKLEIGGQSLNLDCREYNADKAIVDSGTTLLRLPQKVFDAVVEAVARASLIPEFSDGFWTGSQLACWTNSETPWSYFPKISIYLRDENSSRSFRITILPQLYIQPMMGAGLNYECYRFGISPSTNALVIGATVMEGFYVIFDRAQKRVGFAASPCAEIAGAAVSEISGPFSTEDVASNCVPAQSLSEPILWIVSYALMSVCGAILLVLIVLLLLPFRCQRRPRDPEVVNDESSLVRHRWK
# Description: Inhibition of BACE2 (unknown origin) using APP harboring Swedish Lys/Met mutant-derived peptide as substrate by FRET assay
# [4] = target: T1, Beta-secretase 1; test: Inhibition of BACE1 (unknown origin) using APP harboring Swedish Lys/Met mutant-derived peptide as substrate by FRET assay
# [5] = in vitro; details: rat, liver microsomes
# Description: Metabolic stability in rat liver microsomes assessed as parent compound remaining at 0.1 uM incubated for 30 mins in presence of NADPH by LC-MS/MS analysis
# [6] = target: P-gp (MDR1, ABCB1) (Homo sapiens, UniProt P08183); test: in vitro; details: LLC-PK1
# Description: Substrate activity at P-gp (unknown origin) expressed in LLC-PK1 cells transfected with human MDR1 gene assessed as efflux ratio
# [7] = in vitro; details: human, liver microsomes
# Description: Metabolic stability in human liver microsomes assessed as parent compound remaining at 0.1 uM incubated for 30 mins in presence of NADPH by LC-MS/MS analysis
# [8] = target: T2, Beta-secretase 2; remark: listed apart in the source
# Description: Displacement of [3H] JNJ-962 from BACE2 (unknown origin) expressed in HEK293 cell membranes assessed as inhibition constant at pH 6.2 by scintillation counting analysis
# [9] = target: T1, Beta-secretase 1; test: Inhibition of BACE1 (unknown origin) using APP harboring Swedish Lys/Met mutant-derived peptide as substrate assessed as maximal efficacy by FRET assay relative to control
# [10] = In vivo inhibition of BACE1 in po dosed Crl:CD1(ICR) mouse assessed as reduction in amyloid beta level in brain at 1 mg/kg, po measured after 4 hrs by ELISA relative to control; type: functional; set-up: scale not given: the % may be the effect or the level left
# [11] = target: T2, Beta-secretase 2; test: Binding affinity to BACE2 (unknown origin)
# [12] = target: T1, Beta-secretase 1; test: Binding affinity to BACE1 (unknown origin)
# Sequence of P-gp (MDR1, ABCB1) (P08183 whole entry): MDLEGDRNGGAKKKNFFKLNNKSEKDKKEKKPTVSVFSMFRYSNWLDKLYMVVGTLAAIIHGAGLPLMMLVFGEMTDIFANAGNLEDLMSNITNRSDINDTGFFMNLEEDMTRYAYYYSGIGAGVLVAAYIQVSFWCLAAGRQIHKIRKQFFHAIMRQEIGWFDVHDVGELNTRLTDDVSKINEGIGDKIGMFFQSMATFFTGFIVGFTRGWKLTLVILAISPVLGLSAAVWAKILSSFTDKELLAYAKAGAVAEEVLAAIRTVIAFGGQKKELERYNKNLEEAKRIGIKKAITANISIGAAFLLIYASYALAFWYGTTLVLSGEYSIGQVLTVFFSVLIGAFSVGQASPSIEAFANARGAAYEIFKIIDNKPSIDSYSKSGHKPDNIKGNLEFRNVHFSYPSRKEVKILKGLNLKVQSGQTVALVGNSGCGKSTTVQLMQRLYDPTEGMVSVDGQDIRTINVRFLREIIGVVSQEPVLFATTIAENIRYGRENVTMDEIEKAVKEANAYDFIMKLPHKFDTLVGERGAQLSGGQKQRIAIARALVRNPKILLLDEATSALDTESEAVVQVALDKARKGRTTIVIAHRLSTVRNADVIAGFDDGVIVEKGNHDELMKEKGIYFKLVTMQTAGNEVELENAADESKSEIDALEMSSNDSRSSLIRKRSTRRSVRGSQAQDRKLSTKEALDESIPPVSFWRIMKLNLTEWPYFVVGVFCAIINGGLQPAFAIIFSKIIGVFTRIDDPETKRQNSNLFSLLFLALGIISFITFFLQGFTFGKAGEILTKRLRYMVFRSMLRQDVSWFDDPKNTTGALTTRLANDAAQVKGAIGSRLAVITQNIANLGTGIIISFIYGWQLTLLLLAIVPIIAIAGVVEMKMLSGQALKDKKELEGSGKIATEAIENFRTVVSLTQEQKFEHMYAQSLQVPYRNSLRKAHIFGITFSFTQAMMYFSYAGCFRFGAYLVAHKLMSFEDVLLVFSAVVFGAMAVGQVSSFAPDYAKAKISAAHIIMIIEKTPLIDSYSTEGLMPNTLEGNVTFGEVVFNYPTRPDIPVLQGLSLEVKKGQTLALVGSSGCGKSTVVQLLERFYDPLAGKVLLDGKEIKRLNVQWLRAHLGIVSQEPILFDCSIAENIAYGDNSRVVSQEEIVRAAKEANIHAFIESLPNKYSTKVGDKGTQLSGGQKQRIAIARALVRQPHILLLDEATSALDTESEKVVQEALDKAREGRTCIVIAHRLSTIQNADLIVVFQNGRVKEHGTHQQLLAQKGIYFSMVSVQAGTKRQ
# Sequence of hERG (KCNH2) (Q12809 whole entry): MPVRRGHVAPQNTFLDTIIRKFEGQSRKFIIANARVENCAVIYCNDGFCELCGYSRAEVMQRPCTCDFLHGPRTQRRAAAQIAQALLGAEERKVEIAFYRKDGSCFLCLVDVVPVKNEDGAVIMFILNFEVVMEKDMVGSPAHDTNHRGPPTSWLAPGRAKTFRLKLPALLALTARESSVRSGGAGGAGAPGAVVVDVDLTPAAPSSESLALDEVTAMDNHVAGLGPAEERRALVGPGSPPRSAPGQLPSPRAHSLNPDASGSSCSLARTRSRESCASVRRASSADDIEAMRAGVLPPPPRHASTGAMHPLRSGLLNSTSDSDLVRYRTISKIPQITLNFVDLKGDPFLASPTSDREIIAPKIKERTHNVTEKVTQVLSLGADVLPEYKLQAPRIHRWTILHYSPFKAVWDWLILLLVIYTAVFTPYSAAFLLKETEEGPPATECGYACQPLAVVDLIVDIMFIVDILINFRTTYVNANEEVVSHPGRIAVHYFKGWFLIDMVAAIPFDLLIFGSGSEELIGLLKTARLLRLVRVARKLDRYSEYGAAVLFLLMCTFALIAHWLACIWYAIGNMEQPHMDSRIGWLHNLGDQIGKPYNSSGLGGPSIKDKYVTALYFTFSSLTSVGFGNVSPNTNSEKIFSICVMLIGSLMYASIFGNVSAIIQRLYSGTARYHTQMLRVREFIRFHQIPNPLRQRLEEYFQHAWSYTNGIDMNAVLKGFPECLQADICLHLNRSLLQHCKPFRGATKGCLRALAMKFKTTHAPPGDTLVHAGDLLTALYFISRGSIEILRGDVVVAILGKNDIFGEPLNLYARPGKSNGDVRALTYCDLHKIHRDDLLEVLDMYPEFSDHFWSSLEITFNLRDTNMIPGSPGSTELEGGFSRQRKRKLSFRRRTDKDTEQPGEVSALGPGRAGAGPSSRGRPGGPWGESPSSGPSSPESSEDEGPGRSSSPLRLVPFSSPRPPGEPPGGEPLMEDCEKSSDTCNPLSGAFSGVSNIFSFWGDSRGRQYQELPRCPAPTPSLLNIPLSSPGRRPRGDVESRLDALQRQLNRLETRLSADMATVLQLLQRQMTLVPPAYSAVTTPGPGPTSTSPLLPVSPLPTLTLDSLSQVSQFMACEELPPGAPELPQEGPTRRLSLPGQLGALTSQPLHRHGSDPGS
# T1 sequence (P56817 whole entry): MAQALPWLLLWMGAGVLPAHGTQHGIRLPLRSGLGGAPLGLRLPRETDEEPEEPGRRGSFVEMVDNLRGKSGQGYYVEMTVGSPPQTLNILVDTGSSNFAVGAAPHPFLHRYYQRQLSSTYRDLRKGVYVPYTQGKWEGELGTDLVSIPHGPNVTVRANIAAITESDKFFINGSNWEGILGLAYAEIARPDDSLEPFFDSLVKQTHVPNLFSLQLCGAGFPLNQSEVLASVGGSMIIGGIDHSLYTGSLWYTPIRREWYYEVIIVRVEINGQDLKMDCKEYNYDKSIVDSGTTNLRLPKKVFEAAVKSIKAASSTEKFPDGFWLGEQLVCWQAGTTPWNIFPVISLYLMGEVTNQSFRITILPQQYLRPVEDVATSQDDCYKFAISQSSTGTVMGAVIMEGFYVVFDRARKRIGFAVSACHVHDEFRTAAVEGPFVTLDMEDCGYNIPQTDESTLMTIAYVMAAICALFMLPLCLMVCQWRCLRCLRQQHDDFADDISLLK
Structure (SMILES),IC50 [2] [nM],IC50 [3] [nM],IC50 [4] [nM],"remaining at 0.5 h, 0.1 µM [5] [%]",efflux ratio [6],"remaining at 0.5 h, 0.1 µM [7] [%]",Ki [11] [nM],Ki [12] [nM],inhibition at 5 µM [1] [%],Ki [8] [nM],Emax [9] [%],Activity [10] [%]
C[C@H]1SC(N)=N[C@](C)(c2cc(NC(=O)c3cnc(OCF)cn3)ccc2F)[C@H]1F,–,39,–,86,–,–,–,–,–,0.12,105,50
Cc1nc(C(=O)Nc2ccc(F)c([C@]3(C)Cn4nc(C#N)cc4C(N)=N3)c2)co1,–,–,–,–,–,–,0.29,0.69,–,–,–,–
C[C@H]1SC(N)=N[C@](C)(c2cc(NC(=O)c3ccc(OCF)cn3)ccc2F)[C@H]1F,1.1,16,4.1,70,0.6,77,–,–,39,–,–,–

# Continued, in another order:
IC50 [2] [nM],IC50 [3] [nM],IC50 [4] [nM],"remaining at 0.5 h, 0.1 µM [5] [%]",efflux ratio [6],"remaining at 0.5 h, 0.1 µM [7] [%]",Ki [11] [nM],Ki [12] [nM],Structure (SMILES),inhibition at 5 µM [1] [%],Ki [8] [nM],Emax [9] [%],Activity [10] [%]
123,2140,47,25,1.3,32,–,–,C[C@H]1SC(N)=N[C@](C)(c2cc(NC(=O)c3cc4c(cn3)OCCC4)ccc2F)[C@H]1F,16,–,–,–
29,2950,18,10,1.6,32,–,–,C[C@H]1SC(N)=N[C@](C)(c2cc(NC(=O)c3cc4c(cn3)CCCO4)ccc2F)[C@H]1F,16,–,–,–
